Results on 2 compounds are retold here after patent US20240287062A1, “NAPHTHYRIDONE COMPOUNDS FOR INHIBITION OF RAF KINASES AND/OR BCR-ABL TYROSINE KINASES” (Enliven Inc., priority 2021, published 2024).

Assay type in all cases: biochemical
For test [1], the target named is ABL1 (T315I) (Homo sapiens (Human), UniProt P00519, T315I). Put plainly: Luminescence-based ABL kinase assay (Km ATP), ADP-Glo. Particulars: measured using the Abl1 Km assay, read-out: IC50 (nM), value inside parentheses. On the procedure:
(§1) Kinase activity of ABL1 was measured using the ADP-Glo system (Promega), which measures formation of ADP using a luminescence-based method. Compounds were serially diluted in DMSO. 20 nL of compound or DMSO only (high control, HC) were added to a 384-well plate (OptiPlate-384, PerkinElmer) using an Echo550 liquid handler (Labcyte). 15 μL of kinase solution (10 mM MgCl2, 0.01% Brij-35, 2 mM DTT, 0.05% BSA, 1 mM EGTA, 50 mM HEPES pH 7.5, and 3.325 nM ABL1 [Carna Biosciences]) were added to each well of the 384-well plate containing the compounds. No enzyme control wells were included (low control, LC). The plate was incubated at room temperature for 30 minutes. 5 μL of a second solution containing 10 mM MgCl2, 0.01% Brij-35, 2 mM DTT, 0.05% BSA, 1 mM EGTA, 50 mM HEPES pH 7.5, 6 μM Peptide 2 (Perkin Elmer, Cat No 760346), and 40 μM ATP were added to each well to start the kinase reaction. The plate was incubated for 90 minutes at room temperature. 20 μL of ADP-Glo reagent (Promega) were then added to each well and the plate was incubated for 40 minutes at room temperature. 40 μL of kinase detection reagent (Promega) was added to each well and the plate was incubated for an additional 45 minutes at room temperature. During this step, ADP was converted to ATP, a substrate for luciferase, to produce luminescence signal. Luminescence was measured on an Envision plate reader (Perkin Elmer). Luminescence signal positively correlates with kinase activity. The percent kinase activity was calculated as follows: percent kinase activity=100×(LumSample−LumLC)/(LumHC−LumLC). As noted above, DMSO only and no enzyme wells were used as high and low controls, respectively. IC50 values were calculated using the XLFit software.
(ADP-Glo turns the ADP formed in a reaction into a luminescent signal.)

Test [2] deals with ABL1 (Homo sapiens (Human), UniProt P00519). The description is as above. Particulars: measured using the Abl1 Km assay, read-out: IC50 (nM), value inside parentheses. As for the experimental part: as §1
The target of test [3] is PDGFRα (Homo sapiens (Human), UniProt P16234). The experiment in a line: Luminescence-based PDGFRα kinase assay (Km ATP), ADP-Glo. Particulars: compound at 100 nM concentration. As for the experimental part:
(§2) Kinase activity of PDGFRα was measured using the ADP-Glo system (Promega). Compounds were diluted in DMSO at 100 μM. 20 nL of compound or DMSO only (high control, HC) were added to a 384-well plate (OptiPlate-384, PerkinElmer) using an Echo550 liquid handler (Labcyte). 15 μL of kinase solution (10 mM MgCl2, 0.01% Brij-35, 2 mM DTT, 0.05% BSA, 1 mM EGTA, 50 mM HEPES pH 7.5, and 13.3 nM PDGFRα [Carna Biosciences]) were added to each well of the 384-well plate containing the compounds. No enzyme control wells were included (low control, LC). The plate was incubated at room temperature for 30 minutes. 5 μL of a second solution containing 10 mM MgCl2, 0.01% Brij-35, 2 mM DTT, 0.05% BSA, 1 mM EGTA, 50 mM HEPES pH 7.5, 0.8 μg/ml Poly(Glu-Tyr) (Sigma, Cat No 97105-00-5), and 120 μM ATP were added to each well to start the kinase reaction. The plate was incubated for 90 minutes at room temperature. 20 μL of ADP-Glo reagent (Promega) were then added to each well and the plate was incubated for 40 minutes at room temperature. […] During this step, ADP was converted to ATP, a substrate for luciferase, to produce luminescence signal. Luminescence was measured on an Envision plate reader (Perkin Elmer). Luminescence signal positively correlates with kinase activity. The percent inhibition of kinase activity was calculated as follows: percent inhibition=100×(LumHC−LumSample)/(LumHC−LumLC). […]

Test [4] deals with SRC (Homo sapiens (Human), UniProt P12931). Put plainly: Luminescence-based SRC kinase assay (Km ATP), ADP-Glo. Particulars: compound at 100 nM concentration. On the procedure:
as §2, with “SRC” for “PDGFRα”, “0.532” for “13.3”, “6 μM Peptide 4 (Perkin Elmer,” for “0.8 μg/ml Poly(Glu-Tyr) (Sigma,”, “760348),” for “97105-00-5),”, “200” for “120”

Each structure is given as a SMILES string.

Chain of PDGFRα (P16234 24-1089): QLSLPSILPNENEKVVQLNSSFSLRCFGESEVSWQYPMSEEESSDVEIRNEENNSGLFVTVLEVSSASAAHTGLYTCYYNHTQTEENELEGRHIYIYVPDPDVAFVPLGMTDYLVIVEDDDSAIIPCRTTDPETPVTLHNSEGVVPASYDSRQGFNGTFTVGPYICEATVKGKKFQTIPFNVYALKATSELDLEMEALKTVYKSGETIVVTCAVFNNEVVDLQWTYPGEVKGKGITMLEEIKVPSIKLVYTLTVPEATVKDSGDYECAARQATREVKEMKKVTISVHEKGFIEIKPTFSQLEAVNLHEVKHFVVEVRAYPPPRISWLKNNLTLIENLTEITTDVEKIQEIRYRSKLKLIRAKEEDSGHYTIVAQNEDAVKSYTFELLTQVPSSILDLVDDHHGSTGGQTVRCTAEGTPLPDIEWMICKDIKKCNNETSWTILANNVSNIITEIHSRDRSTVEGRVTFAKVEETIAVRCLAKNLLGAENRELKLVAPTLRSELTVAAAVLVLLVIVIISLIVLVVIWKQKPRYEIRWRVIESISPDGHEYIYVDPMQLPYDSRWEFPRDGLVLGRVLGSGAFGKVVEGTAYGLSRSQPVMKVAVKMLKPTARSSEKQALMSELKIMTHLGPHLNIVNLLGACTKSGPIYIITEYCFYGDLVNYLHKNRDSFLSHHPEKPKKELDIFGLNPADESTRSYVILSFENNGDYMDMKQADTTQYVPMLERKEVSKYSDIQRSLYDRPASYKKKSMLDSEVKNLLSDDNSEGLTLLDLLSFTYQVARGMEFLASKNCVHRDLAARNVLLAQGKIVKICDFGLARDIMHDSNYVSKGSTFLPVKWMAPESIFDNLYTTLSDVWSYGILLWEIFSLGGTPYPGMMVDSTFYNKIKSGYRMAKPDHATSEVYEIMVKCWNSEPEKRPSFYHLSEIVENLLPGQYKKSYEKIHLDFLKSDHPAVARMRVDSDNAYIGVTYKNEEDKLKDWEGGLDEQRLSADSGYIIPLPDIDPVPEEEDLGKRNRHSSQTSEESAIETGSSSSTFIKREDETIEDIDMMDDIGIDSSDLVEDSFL
Chain of SRC (P12931 whole entry): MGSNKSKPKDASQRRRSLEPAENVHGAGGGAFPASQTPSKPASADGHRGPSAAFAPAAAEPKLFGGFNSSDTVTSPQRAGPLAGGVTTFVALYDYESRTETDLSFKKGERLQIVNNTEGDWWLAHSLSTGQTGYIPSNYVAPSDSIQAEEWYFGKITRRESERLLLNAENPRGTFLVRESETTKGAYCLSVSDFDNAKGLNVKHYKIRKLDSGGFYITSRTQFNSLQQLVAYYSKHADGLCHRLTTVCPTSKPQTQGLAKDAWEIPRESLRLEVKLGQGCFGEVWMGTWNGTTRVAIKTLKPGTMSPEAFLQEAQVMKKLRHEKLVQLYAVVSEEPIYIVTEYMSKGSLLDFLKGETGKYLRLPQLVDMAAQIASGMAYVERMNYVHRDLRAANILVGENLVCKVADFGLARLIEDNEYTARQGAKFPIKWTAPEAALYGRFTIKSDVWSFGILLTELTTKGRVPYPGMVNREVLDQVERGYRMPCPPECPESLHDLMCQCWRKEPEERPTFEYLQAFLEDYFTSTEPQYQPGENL

By IC50 is commonly meant the point on the concentration scale where inhibition reaches its midpoint. The term inhibition denotes the relative decrease from the control value, in per cent. Low values mean little suppression, high ones strong suppression. On to `Cc1c(F)cncc1-c1cc2cnc(NC(=O)C3CC3)cc2n(C)c1=O` [Compound 2, N-[3-(5-fluoro-4-methylpyridin-3-yl)-1-methyl-2-oxo-1,6-naphthyridin-7-yl]cyclopropanecarboxamide], for which the IC50 in test [1] stood at 680 nM; in test [2], 1.8 nM. Also, the inhibition at 0.1 µM in test [3] amounted to 33%; in test [4], 77%.

For `Cc1c(F)cncc1-c1cc2cnc(NC(=O)[C@@H]3C[C@@H]3F)cc2n(C)c1=O` [Compound 28, (1S,2S)-2-fluoro-N-[3-(5-fluoro-4-methylpyridin-3-yl)-1-methyl-2-oxo-1,6-naphthyridin-7-yl]cyclopropane-1-carboxamide], the results for the IC50 in test [1] and in test [2] were 1500 nM and 2.2 nM, respectively. Besides, the inhibition at 0.1 µM in test [3] came to 15%; in test [4], 48%.
